Measured values taken from PMC8009514 (Langmuir, 2020).
Read-outs that look alike come from different tables or passages of the source. One block for each molecule: values may come before it. Ends that are not written are not given here.

Tests used:
[1] = cited from earlier work
Description: Table 1 Some Physicochemical Properties of the Three Solvents in Which the Self-Assembly of the Peptides Was Investigated | column: H2O; MeOH; DMF

[2] = Visual observation of gel-like (arrested) state; format: physicochemical
Method: Previous SAXS experiments on the peptides in water[13],[17] have shown that this concentration could be considered dilute enough not to manifest any effects of interaggregate interactions in the scattering profiles. The first observation made was that the peptide samples in MeOH and DMF were more viscous than the corresponding samples in water prepared at similar concentrations and presented highly viscous (gel-like) states after 5-12 h from solubilization (Figure 2).

[3] = cited from earlier work; remark: listed apart in the source
Description: Aggregates begin to form above a particular concentration, which can be interpreted as the monomer solubility, cs. This concentration can be measured, for example, by following the scattered light intensity as a function of dilution of a sample with an initial concentration c > cs.[13] For this purpose, solutions of the peptides at 1 wt % were gradually diluted in order to determine at which concentration the light scattering signal reached the solvent level, which is a good indication of the monomer solubility. With this method, monomer solubilities of 2 mM and 7 μM in water were determined f ...

[4] = Monomer solubility (cs) from scattered light intensity on dilution; format: physicochemical
Method: Dynamic light scattering (DLS) experiments were performed with an ALV/DLS/SLS-5022F goniometer system with an ALV-7004 correlator at a scattering angle of 90°. The laser source was a 22 mW He–Ne laser with a wavelength of 632.8 nm. The samples were placed in 5 mm glass tubes, kept at 25 °C, and the intensity autocorrelation functions were collected over runs of 300 s, using two avalanche photodiode detectors operating in the pseudo-cross-correlational mode. Light scattering experiments were also performed using a modulated three-dimensional light scattering instrument (LS Instruments GmbH, Switzerland), implementing a laser with a wavelength of 660 nm and two avalanche photodiodes. […] The experimental intensity correlation functions g^(2)(τ) were converted to C(τ) = (g^(2)(τ) – 1)/β = |g^(1)(τ)|^2,[35] where β is an instrumental constant, close to unity, and g^(1)(τ) is the correlation function of the electric field, which was fitted using the cumulant expansion to obtain an average diffusion coefficient.[36] Fitting was performed with an in-house MATLAB script.
Aggregates begin to form above a particular concentration, which can be interpreted as the monomer solubility, cs. This concentration can be measured, for example, by following the scattered light intensity as a function of dilution of a sample with an initial concentration c > cs.[13] For this purpose, solutions of the peptides at 1 wt % were gradually diluted in order to determine at which concentration the light scattering signal reached the solvent level, which is a good indication of the monomer solubility. […] For A8K, the monomer solubilities of about 10 μM were obtained, which means approximately 2 orders of magnitude smaller compared to that in water.

[5] = target: the molecule itself; test: light scattering intensity on dilution; peptide in N,N-dimethylformamide, 1 wt % solution gradually diluted, mean count rate at 90°; concentration at which the signal reaches the solvent level is taken as monomer solubility
[6] = light scattering intensity on dilution; peptide in methanol, 1 wt % solution gradually diluted, mean count rate at 90°; concentration at which the signal reaches the solvent level is taken as monomer solubility; conditions: other: light scattering intensity on dilution
[7] = light scattering intensity on dilution; peptide in N,N-dimethylformamide, 1 wt % solution gradually diluted, mean count rate at 90°; concentration at which the signal reaches the solvent level is taken as monomer solubility; conditions: other: light scattering intensity on dilution

Molecule: CCCCCC [hexane]
- solubility of hexane at 25 °C ([1]; in H2O): 0.0124 mg/mL
- solubility of hexane at 25 °C ([1]; in MeOH): 604 mg/mL

- time from solubilization to highly viscous (gel-like) state [2]: 5 to 12 h
- monomer solubility cs [4]: about 10 μM
Molecule: AAAAAAAAK [A8K]
- monomer solubility cs [3]: 2000 µM

Molecule: CCCCCCCCCCCCOS(=O)(=O)[O-].[Na+] [SDS]
- CMC of SDS at 25 °C ([1]; in DMF): 14.6 mM
- CMC of SDS at 25 °C ([1]; in H2O): 7.8 mM
- CMC of SDS at 25 °C ([1]; in MeOH): 6.9 mM

- time from solubilization to highly viscous (gel-like) state ([2]; samples around 1 wt % in MeOH and DMF): 5 to 12 h
- monomer solubility cs ([4]; in DMF, 1 wt % TFA-salt solution gradually diluted until light scattering signal reached solvent level, mean count rate at 90°, average of three runs of 100 s): approximately the same solubilities
- monomer solubility cs ([4]; in MeOH, 1 wt % TFA-salt solution gradually diluted until light scattering signal reached solvent level, mean count rate at 90°, average of three runs of 100 s): approximately the same solubilities
Molecule: C[C@H](N)C(=O)N[C@@H](C)C(=O)N[C@@H](C)C(=O)N[C@@H](C)C(=O)N[C@@H](C)C(=O)N[C@@H](C)C(=O)N[C@@H](C)C(=O)N[C@@H](C)C(=O)N[C@@H](C)C(=O)N[C@@H](C)C(=O)N[C@@H](CCCCN)C(=O)O [A10K]
- monomer solubility cs ([3]; in water, scattered light intensity on dilution of a sample with c > cs): 7 µM

B1: A10K amphiphilic model peptide (peptide)
peptide: AAAAAAAAAAK
notes: unprotected N-terminus; 11 residues, 857 g/mol; Designed model peptide; The printed molecular weight (857 g/mol) fits free N- and C-termini; TFA counterions are present; also called AnK (n = 10); source: synthetic peptide; bought: CPC Scientific Inc., trifluoroacetate salt, purity >96%, used without further purification
- binding result [5]: binds

B2: A8K amphiphilic model peptide (peptide)
chain: AAAAAAAAK
- monomer solubility cs (concentration above which aggregates form) [6]: For A8K, the monomer solubilities of about 10 μM were obtained
- monomer solubility cs (concentration above which aggregates form) [7]: For A8K, the monomer solubilities of about 10 μM were obtained
